Test results: ChEMBL document CHEMBL1641451, “Investigation of α-phenylnorstatine and α-benzylnorstatine as transition state isostere motifs in the search for new BACE-1 inhibitors” (Bioorg Med Chem, 2011)

molecular target: Beta-secretase 1 (Homo sapiens, UniProt P56817); assay: Inhibition of BACE1
Sequence (P56817 whole entry): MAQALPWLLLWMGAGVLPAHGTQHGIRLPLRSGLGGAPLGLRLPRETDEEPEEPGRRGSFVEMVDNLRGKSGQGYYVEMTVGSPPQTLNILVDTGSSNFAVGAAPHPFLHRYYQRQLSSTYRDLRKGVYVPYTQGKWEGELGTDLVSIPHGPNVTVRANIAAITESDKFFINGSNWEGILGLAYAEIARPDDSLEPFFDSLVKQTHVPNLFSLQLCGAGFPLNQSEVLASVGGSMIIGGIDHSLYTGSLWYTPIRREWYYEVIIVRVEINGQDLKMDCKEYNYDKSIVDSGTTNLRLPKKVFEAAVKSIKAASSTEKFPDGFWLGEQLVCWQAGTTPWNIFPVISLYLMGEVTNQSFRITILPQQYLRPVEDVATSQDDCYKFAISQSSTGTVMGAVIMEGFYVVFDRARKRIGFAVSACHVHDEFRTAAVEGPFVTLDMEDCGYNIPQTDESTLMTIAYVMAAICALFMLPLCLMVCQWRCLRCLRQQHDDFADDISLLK

| SMILES | IC50 |
| --- | --- |
| CC(C)C[C@H](NC(=O)[C@@H](NC(=O)[C@@H](N)CNC(=O)c1nn[nH]n1)C(C)C)C(=O)NCC(O)C(=O)O (stereo partly specified) | 6.1 µM |
| CC(C)C[C@H](NC(=O)[C@@H](NC(=O)[C@@H](N)CNC(=O)c1nnn[nH]1)C(C)C)C(=O)O | 4.4 µM |
| CC(C)C[C@H](NC(=O)[C@@H](NC(=O)[C@@H](CO)NC(=O)c1nn[nH]n1)C(C)C)C(=O)NCC(O)(CCc1ccccc1)C(=O)Nc1cccc(C(=O)O)c1 (stereo partly specified) | > 10 µM |
| CC(C)C[C@H](NC(=O)[C@@H](NC(=O)[C@@H](CO)NC(=O)c1nnn[nH]1)C(C)C)C(=O)NCCC(=O)Nc1cccc(C(=O)O)c1 | > 10 µM |
| CC(C)[C@H](NC(=O)[C@@H](N)CNC(=O)c1nn[nH]n1)C(=O)N[C@@H](CC1CCCCC1)C(=O)NCC(O)(Cc1ccccc1)C(=O)Nc1cccc(C(=O)O)c1 (stereo partly specified) | 0.68 µM |
| CC(C)C[C@H](NC(=O)[C@@H](NC(=O)[C@H](N)CO)C(C)C)C(=O)NCC(O)C(=O)Nc1cccc(C(=O)O)c1 (stereo partly specified) | > 10 µM |
| CC(C)C[C@H](NC(=O)[C@@H](NC(=O)[C@H](N)CNC(=O)c1nnn[nH]1)C(C)C)C(=O)NCC(O)(CCc1ccccc1)C(=O)Nc1cccc(C(=O)O)c1 (stereo partly specified) | > 10 µM |
| CCCC[C@H](NC(=O)[C@@H](N)CNC(=O)c1nnn[nH]1)C(=O)N[C@@H](CC(C)C)C(=O)NCC(O)(CCc1ccccc1)C(=O)Nc1cccc(C(=O)O)c1 (stereo partly specified) | > 10 µM |
| CC(C)C[C@H](NC(=O)[C@@H](NC(=O)[C@@H](N)CNC(=O)c1nnn[nH]1)C(C)C)C(=O)NCC(O)(Cc1ccccc1)C(=O)Nc1cccc(C(=O)O)c1 (stereo partly specified) | 0.43 µM |
| CC(C)C[C@H](NC(=O)[C@@H](NC(=O)[C@@H](N)CN)C(C)C)C(=O)NCC(O)(CCc1ccccc1)C(=O)Nc1cccc(C(=O)O)c1 (stereo partly specified) | > 10 µM |
| CC(C)C[C@H](NC(=O)[C@H](Cc1ccccc1)NC(=O)[C@@H](N)CNC(=O)c1nnn[nH]1)C(=O)NC[C@@](O)(CCc1ccccc1)C(=O)Nc1cccc(C(=O)O)c1 | > 10 µM |
| CC(C)C[C@H](NC(=O)[C@@H](NC(=O)[C@@H](N)CNC(=O)c1nnn[nH]1)C(C)C)C(=O)NC[C@](O)(CCc1ccccc1)C(=O)Nc1cccc(C(=O)O)c1 | 0.19 µM |
| CC(C)C[C@H](NC(=O)[C@@H](NC(=O)[C@@H](N)CNC(=O)c1nnn[nH]1)C(C)C)C(=O)NCCC(=O)Nc1cccc(C(=O)O)c1 | 0.87 µM |
| CC(C)C[C@H](NC(=O)[C@H](Cc1ccccc1)NC(=O)[C@@H](N)CNC(=O)c1nnn[nH]1)C(=O)NC[C@](O)(CCc1ccccc1)C(=O)Nc1cccc(C(=O)O)c1 | > 10 µM |
| CC(C)C[C@H](NC(=O)[C@@H](NC(=O)[C@H](N)CNC(=O)c1nnn[nH]1)C(C)C)C(=O)NCCC(=O)Nc1cccc(C(=O)O)c1 | > 10 µM |
| CC(C)C[C@H](NC(=O)C[C@@H](NC(=O)[C@@H](N)CNC(=O)c1nnn[nH]1)C(C)C)C(=O)NCC(O)(CCc1ccccc1)C(=O)Nc1cccc(C(=O)O)c1 (stereo partly specified) | > 10 µM |
| CC(C)C[C@H](NC(=O)[C@@H](NC(=O)[C@@H](N)CNC(=O)c1nn[nH]n1)C(C)C)C(=O)NCC(O)(CCc1ccccc1)C(=O)Nc1cccc(C(=O)O)c1 (stereo partly specified) | 0.4 µM |
| CC(C)[C@H](NC(=O)[C@@H](NC(=O)[C@@H](N)CNC(=O)c1nnn[nH]1)C(C)C)C(=O)NCC(O)C(=O)Nc1cccc(C(=O)O)c1 (stereo partly specified) | 3 µM |
| CC(C)C[C@H](NC(=O)[C@@H](NC(=O)[C@H](CO)NC(=O)c1nnn[nH]1)C(C)C)C(=O)NCCC(=O)Nc1cccc(C(=O)O)c1 | > 10 µM |
| CC(C)C[C@H](NC(=O)[C@@H](NC(=O)[C@@H](N)CNC(=O)c1nn[nH]n1)C(C)C)C(=O)NCC(O)C(=O)Nc1cccc(C(=O)O)c1 (stereo partly specified) | 0.44 µM |
| CC(C)[C@H](NC(=O)[C@@H](NC(=O)[C@@H](CO)NC(=O)c1nn[nH]n1)C(C)C)C(=O)NCC(O)C(=O)Nc1cccc(C(=O)O)c1 (stereo partly specified) | > 10 µM |
| CC(C)C[C@H](NC(=O)[C@@H](NC(=O)[C@@H](N)CN)C(C)C)C(=O)NCC(O)C(=O)Nc1cccc(C(=O)O)c1 (stereo partly specified) | > 10 µM |
| CC(C)C[C@H](NC(=O)[C@H](CC(C)C)NC(=O)[C@@H](N)CNC(=O)c1nnn[nH]1)C(=O)NCC(O)(CCc1ccccc1)C(=O)Nc1cccc(C(=O)O)c1 (stereo partly specified) | > 10 µM |
| CC(C)C[C@H](NC(=O)[C@@H](NC(=O)[C@@H](N)CNC(=O)c1nn[nH]n1)C(C)C)C(=O)NC[C@@](O)(CCc1ccccc1)C(=O)Nc1cccc(C(=O)O)c1 | 1.4 µM |
| CC(C)C[C@H](NC(=O)[C@@H](NC(=O)[C@H](CO)NC(=O)c1nnn[nH]1)C(C)C)C(=O)NCC(O)(CCc1ccccc1)C(=O)Nc1cccc(C(=O)O)c1 (stereo partly specified) | > 10 µM |
| CC(C)C[C@H](NC(=O)[C@@H](NC(=O)[C@H](N)CNC(=O)c1nn[nH]n1)C(C)C)C(=O)NCC(O)C(=O)Nc1cccc(C(=O)O)c1 (stereo partly specified) | > 10 µM |
